In patent publication US9175037B2, “Neuromedin U derivative” (Takeda Pharmaceutical Company Limited, priority 2009, dated 2015):
Non-standard residues stand in square brackets, D forms with d. No end group written: not given here. *: point of attachment. Acetyl(2-(piperazin-1-yl)) = O=C(CN1CCNCC1)*; PEG20k = methoxypolyethylene glycol 20k; NMeA = CN[C@@H](C)C(=O)O; βAla = NCCC(=O)O

How the values were obtained:
[1] = target: T1, human TGR1 (Homo sapiens, UniProt Q9GZQ4); assay: Receptor binding test: inhibition of 125I-NMU8 binding to TGR1 membrane fraction; conditions: ratio of IC50 values when the affinity of NMU-8 was 1; 125I-NMU8 135 pM, CHO cell membrane fraction
T1 construct: expressed in transfected cells; host or cells: CHO (dhfr-) cells; membrane fraction
T1 sequence (Q9GZQ4 whole entry): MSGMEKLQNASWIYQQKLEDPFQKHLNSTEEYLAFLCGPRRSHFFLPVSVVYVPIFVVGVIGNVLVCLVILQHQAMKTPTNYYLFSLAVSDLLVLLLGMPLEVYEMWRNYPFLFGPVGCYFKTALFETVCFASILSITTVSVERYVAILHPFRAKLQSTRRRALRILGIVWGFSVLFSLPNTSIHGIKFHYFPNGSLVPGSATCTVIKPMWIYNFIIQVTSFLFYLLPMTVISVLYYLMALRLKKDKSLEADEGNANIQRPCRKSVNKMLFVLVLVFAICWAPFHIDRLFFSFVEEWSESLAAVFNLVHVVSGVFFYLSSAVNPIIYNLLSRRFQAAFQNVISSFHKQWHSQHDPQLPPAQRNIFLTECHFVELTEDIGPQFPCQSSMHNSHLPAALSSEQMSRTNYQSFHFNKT
Protocol: CHO cells expressing Human FM3 (dhfr-) and CHO cells expressing human TGR1 (dhfr-) were cultured in 10% dialyzed FBS-containing MEMα (Invitrogen) medium under conditions of 5% carbon dioxide at 37° C. The adherent cells were detached with 10 mL of 0.1 mM EDTA-containing D-PBS (Invitrogen) and centrifuged for 10 minutes at 1,000 rpm at 4° C., thereby collecting the cells. 15 mL of homogenized buffer (10 mM NaHCO3 (pH 7.4), 5 mM EDTA, protease inhibitor=0.5 mM PMSF, 10 μg/mL Pepstatin A, 20 μg/mL Leupeptin, and 4 μg/mL E-64) was added to the obtained cell pellets, the cellular membrane was disrupted using a polytron homogenizer (Kinematica GmbH), centrifugation was conducted for 10 minutes at 1,000 g at 4° C., and the supernatant was collected. This process was further repeated twice, and ultracentrifugation was conducted for 60 minutes at 30,000 rpm at 4° C. Thereafter, 8 mL of homogenized buffer was added to the pellets and suspended homogeneously to prepare a membrane fraction. The protein concentration of the FM3-expressing CHO cellular membrane fraction was 1.2 mg/mL, and the protein concentration of the TGR1-expressing CHO cellular membrane fraction was 1.1 mg/mL.
The affinity of the NMU-8 derivatives and PEG conjugates shown in Table 2 (Table 2-1 and Table 2-2) with respect to each receptor was evaluated based on the inhibition of ^125I-NMU8 labeled ligand binding to the FM3 membrane fraction or to the TGR1 membrane fraction. Specifically, each of the NMU derivatives and PEG conjugates was dissolved in DMSO so as to prepare 2 μL of each dilution series of the NMU derivatives and PEG conjugates. Then, 100 μL of membrane fraction solutions diluted with a reaction buffer (50 mM HEPES, 1 mM EDTA protease inhibitor (0.5 mM PMSF), 10 μg/mL Pepstatin A, 20 μg/mL Leupeptin, and 4 μg/mL E-64, pH 6.8, 0.1% BSA) was added thereto, followed by further addition of 100 μL of the labeled ligand (final concentration: 135 pM) similarly diluted with the reaction buffer. The resulting product was thoroughly mixed, and then a reaction was carried out at 25° C. for 70 minutes. In accordance with the above-described procedure, the binding amount of the labeled ligand remaining in the filter was measured using a top count (PerkinElmer) by a liquid scintillation method, and the IC50 values were calculated using a Graph Pad Prism (FIG. 1 (FM3 receptor binding), FIG. 2 (TGR1 receptor binding), and Table 2).

[2] = target: T2, Human FM3 (Homo sapiens, UniProt Q9HB89); assay: Receptor binding test: inhibition of 125I-NMU8 binding to FM3 membrane fraction; conditions: ratio of IC50 values when the affinity of NMU-8 was 1; 125I-NMU8 135 pM, CHO cell membrane fraction
T2 construct: expressed in transfected cells; host or cells: CHO (dhfr-) cells; membrane fraction
T2 sequence (Q9HB89 1-426): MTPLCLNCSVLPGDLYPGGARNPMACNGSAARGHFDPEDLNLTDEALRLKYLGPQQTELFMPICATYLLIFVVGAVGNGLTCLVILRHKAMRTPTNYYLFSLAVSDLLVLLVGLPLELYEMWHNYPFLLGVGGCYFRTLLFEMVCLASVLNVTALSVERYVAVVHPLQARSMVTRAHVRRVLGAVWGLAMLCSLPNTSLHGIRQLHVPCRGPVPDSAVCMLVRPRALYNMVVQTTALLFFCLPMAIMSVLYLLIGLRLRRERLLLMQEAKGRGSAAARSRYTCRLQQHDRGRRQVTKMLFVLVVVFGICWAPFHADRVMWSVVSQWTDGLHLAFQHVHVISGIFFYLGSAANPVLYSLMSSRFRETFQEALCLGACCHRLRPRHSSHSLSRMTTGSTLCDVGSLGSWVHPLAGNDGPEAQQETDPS

[3] = Anorectic activity via peripheral administration; type: in vivo

| Substance | TGR1 Receptor Binding IC50 ratio [1] | FM3 Receptor Binding IC50 ratio [2] | anorectic activity [3] |
| --- | --- | --- | --- |
| NpipAc0,Trp2,Ala6-NMU-8 [Compound 20] | 1.9 | 900 | – |
| PEG30k-NH-β-Ala0,Cha3-NMU-8 [Compound F] | 11 | 1.3 | – |
| NpipAc0,Glu2,Ala6-NMU-8 [Compound 19] | 25 | 24000 | – |
| β-Ala0,NMeLeu3,NMeArg7-NMU-8 [Compound 15] | 19 | 8.6 | – |
| PEG20k-NH-β-Ala0,NMeTyr1,NMeLeu3,NMeArg5-NMU-8 [Compound P] | 240 | 83 | – |
| PEG20k-NpipAc-Trp2,Ala6-NMU8 ({PEG20k-Acetyl(2-(piperazin-1-yl))}-YWLFRARN-NH2) [Compound T] | – | >10000 | – |
| PEG30k-NH-β-Ala0,Val3-NMU-8 [Compound D] | 2.2 | 5.3 | – |
| β-Ala0,Gln5-NMU-8 [Compound 1] | 3.4 | 15 | – |
| PEG20k-NH-β-Ala0,Glu2,NMeAla6-NMU-8 ({PEG20k-βAla}-YELFR[NMeA]RN-NH2) [Compound R] | – | >7300 | – |
| β-Ala0,Arg(Me)7-NMU-8 [Compound 14] | 3.6 | 6.3 | – |
| NpipAc0,Glu2,NMeAla6-NMU-8 [Compound 21] | 5.5 | 6500 | – |
| PEG30k-NH-β-Ala0,Gln5-NMU-8 [Compound A] | 9.6 | 160 | – |
| PEG30k-NH-β-Ala0,Arg3-NMU-8 [Compound C] | 2.6 | 1.7 | – |
| β-Ala0,Asp8-NMU-8 [Compound 12] | 2.0 | 2.4 | – |
| β-Ala0,Val3-NMU-8 [Compound 4] | 0.37 | 0.43 | – |
| β-Ala0,Pro1-NMU-8 [Compound 8] | 3.8 | 0.59 | – |
| PEG30k-NH-β-Ala0,Gln3-NMU-8 [Compound B] | 7.3 | 1.8 | – |
| NpipAc0,Nal(2)2,NMeAla6-NMU-8 [Compound 22] | 1.7 | 99 | – |
| β-Ala0,Arg1-NMU-8 [Compound 7] | 3.7 | 0.42 | – |
| PEG30k-NH-β-Ala0,Arg(Me) 7-NMU-8 [Compound N] | 63 | 290 | – |

| Substance | TGR1 Receptor Binding IC50 ratio [1] | FM3 Receptor Binding IC50 ratio [2] | anorectic activity [3] |
| --- | --- | --- | --- |
| β-Ala0,Glu2,NMeAla6-NMU-8 [Compound 18] | 31 | 26000 | – |
| β-Ala0,NMeArg5-NMU-8 [Compound 13] | 1.1 | 0.46 | – |
| β-Ala0,Trp2,NMeAla6-NMU-8 [Compound 17] | 1.9 | 92 | – |
| PEG20k-NH-β-Ala0,Trp2,NMeAla6-NMU-8 [Compound Q] | 47 | 1600 | – |
| Tyr-Phe-Leu-Phe-Arg-Pro-Arg-Asn-NH2 [NMU-8] | – | – | does not induce an anorectic activity |
| PEG20k-NpipAc-Glu2,Ala6-NMU8 ({PEG20k-Acetyl(2-(piperazin-1-yl))}-YELFRARN-NH2) [Compound S] | – | >10000 | – |
| NpipAc0,Phe1,Trp2,Ala6-NMU-8 [Compound 11] | 0.19 | 280 | – |
| PEG30k-NH-β-Ala0,Pro1-NMU-8 [Compound H] | 21 | 9.4 | – |
| β-Ala0,Gln3-NMU-8 [Compound 2] | 3.9 | 0.31 | – |
| 2-(piperazin-1-yl)acetyl-Arg3-NMU8 [Compound 10] | 0.66 | 0.27 | – |
| PEG20k-NH-β-Ala0,NMeLeu3,NMeArg7-NMU-8 [Compound O] | 170 | 75 | – |
| PEG20k-NpipAc-Glu2,NMeAla6-NMU8 ({PEG20k-Acetyl(2-(piperazin-1-yl))}-YELFR[NMeA]RN-NH2) [Compound U] | – | >10000 | – |
| PEG30k-NH-β-Ala0,Tyr2-NMU-8 [Compound E] | 1.7 | 8.1 | – |
| PEG30k-NH-β-Ala0,Asp8-NMU-8 [Compound L] | 34 | 150 | – |
| β-Ala0,Cha3-NMU-8 [Compound 6] | 9.9 | 0.55 | – |
| PEG30k-NH-β-Ala0,NMeArg5-NMU-8 [Compound M] | 29 | 9.0 | – |
| PEG30k-NH-β-Ala0,Arg1-NMU-8 [Compound G] | 8.5 | 1.5 | – |
| NMU-23: Rat NMU consists of 23 amino acid residues, and is named NMU-23 (YKVNEYQGPVAPSGGFFLFRPRN; ends and bridges not checked; UniProt P12760 144-166, looked up) | – | – | induces an anorectic activity |
| PEG20k-NPipAc-Phe1, Trp2,Ala6-NMU-8 ({PEG20k-Acetyl(2-(piperazin-1-yl))}-FWLFRARN-NH2) [Compound K] | – | 11000 | – |
| β-Ala0,Arg3-NMU-8 [Compound 3] | 0.38 | 0.07 | – |
